The assay has as its target HLA A*3201 (Homo sapiens, UniProt P04439, A270S/D101S/D185E/E176V/E277Q/F133L/G103R/G107R/G231S/H175R/I121M/I218V/I322F/K168Q/L105A/L300P/L318F/M331R/P208A/P217A/Q94H/R106L/R138Q/S129P/T104I/T323A/T345S/V100E/V321M/V358M). Description: biochemical. The format is binding.

The source of these data is PMC2248166, “Quantitative peptide binding motifs for 19 human and mouse MHC class I molecules derived using positional scanning combinatorial peptide libraries” (Immunome Research, 2008).

Where a SMILES comes first, the peptide text is derived from it.

`CC[C@H](C)[C@H](NC(=O)[C@H](Cc1ccc(O)cc1)NC(=O)CNC(=O)[C@H](CO)NC(=O)[C@@H](NC(=O)[C@@H](N)CCCCN)[C@@H](C)O)C(=O)N[C@@H](CO)C(=O)N[C@@H](CO)C(=O)N[C@@H](Cc1ccccc1)C(=O)O` [3102.0408] (H-KTSGYISSF-OH) gave an IC50 of 0.5 nM.
Then `CC[C@H](C)[C@H](NC(=O)[C@@H](NC(=O)[C@H](CC(C)C)NC(=O)[C@@H](NC(=O)[C@@H](NC(=O)[C@H](CO)NC(=O)[C@H](CC(C)C)NC(=O)[C@H](CCSC)NC(=O)[C@@H](N)[C@@H](C)O)[C@@H](C)CC)[C@@H](C)CC)C(C)C)C(=O)O` [3102.0409] (H-TMLSIILVI-OH), with 16 nM; and `CC(C)C[C@H](NC(=O)[C@@H](N)Cc1ccc(O)cc1)C(=O)N[C@@H](Cc1ccccc1)C(=O)N[C@@H](CO)C(=O)N[C@@H](CCC(N)=O)C(=O)N[C@@H](CC(N)=O)C(=O)N[C@@H](Cc1ccc(O)cc1)C(=O)N[C@@H](CO)C(=O)N[C@@H](Cc1ccccc1)C(=O)O` [3102.0410] (H-YLFSQNYSF-OH), with 1.4 nM.
As for `CC[C@H](C)[C@H](N)C(=O)N[C@@H](CC(C)C)C(=O)N[C@H](C(=O)N[C@H](C(=O)N[C@@H](Cc1ccccc1)C(=O)N[C@H](C(=O)N[C@H](C(=O)N[C@@H](C)C(=O)N[C@H](C(=O)O)[C@@H](C)CC)C(C)C)[C@@H](C)O)[C@@H](C)CC)C(C)C` [3102.0411] (H-ILVIFTVAI-OH), the figure is 15 nM.
In the case of `CC[C@H](C)[C@H](NC(=O)[C@@H](N)C(C)C)C(=O)N[C@@H](CC(N)=O)C(=O)N[C@@H](Cc1ccc(O)cc1)C(=O)N[C@@H](Cc1ccccc1)C(=O)N[C@@H](CC(N)=O)C(=O)N[C@@H](CCCNC(=N)N)C(=O)N[C@@H](CCSC)C(=O)N[C@@H](Cc1ccccc1)C(=O)O` [3102.0412] (H-VINYFNRMF-OH), the IC50 amounted to 4.3 nM.
The compound `CC[C@H](C)[C@H](NC(=O)[C@H](Cc1ccccc1)NC(=O)[C@H](CCCCN)NC(=O)[C@@H](NC(=O)[C@H](Cc1ccc(O)cc1)NC(=O)[C@H](CCC(N)=O)NC(=O)[C@@H](NC(=O)[C@@H](N)CC(C)C)C(C)C)[C@@H](C)CC)C(=O)N[C@@H](Cc1ccccc1)C(=O)O` [3102.0413] (H-LVQYIKFIF-OH) showed an IC50 of 20 nM.
Take `CC[C@H](C)[C@H](NC(=O)[C@@H](N)CCCCN)C(=O)N[C@@H](CC(=O)O)C(=O)N[C@@H](CC(N)=O)C(=O)N[C@@H](Cc1ccc(O)cc1)C(=O)N[C@H](C(=O)N[C@H](C(=O)N[C@@H](CCCCN)C(=O)N[C@@H](Cc1ccccc1)C(=O)O)C(C)C)C(C)C` [3102.0414] (H-KIDNYVVKF-OH): the midpoint of inhibition, the IC50, lay at 19 nM.
As for `CC[C@H](C)[C@H](N)C(=O)N[C@@H](CO)C(=O)N[C@@H](CC(C)C)C(=O)N[C@@H](Cc1ccccc1)C(=O)N[C@@H](Cc1ccc(O)cc1)C(=O)N[C@H](C(=O)N[C@@H](Cc1ccccc1)C(=O)N[C@@H](C)C(=O)N[C@H](C(=O)O)[C@@H](C)CC)[C@@H](C)O` [3102.0415] (H-ISLFYTFAI-OH), inhibition was half-maximal at 0.57 nM (IC50).
As for `C[C@@H](O)[C@H](NC(=O)CN)C(=O)N[C@@H](Cc1c[nH]cn1)C(=O)N[C@@H](Cc1ccc(O)cc1)C(=O)N[C@@H](CCC(N)=O)C(=O)N[C@@H](CC(N)=O)C(=O)N[C@@H](Cc1c[nH]cn1)C(=O)NCC(=O)N[C@@H](Cc1ccccc1)C(=O)O` [3102.0417] (H-GTHYQNHGF-OH), the figure is 6 nM; as for `CC[C@H](C)[C@H](NC(=O)[C@@H](NC(=O)[C@@H](N)CO)[C@@H](C)CC)C(=O)N[C@@H](CC(N)=O)C(=O)N[C@@H](CO)C(=O)N[C@@H](CC(N)=O)C(=O)N[C@H](C(=O)N[C@H](C(=O)N[C@@H](Cc1c[nH]c2ccccc12)C(=O)O)[C@@H](C)O)C(C)C` [3102.0419] (H-SIINSNVTW-OH), 11 nM.
Then `CC[C@H](C)[C@H](NC(=O)[C@H](CC(C)C)NC(=O)[C@H](Cc1ccccc1)NC(=O)[C@@H](NC(=O)[C@@H](N)CCCNC(=N)N)[C@@H](C)O)C(=O)N[C@@H](CC(=O)O)C(=O)N[C@@H](CC(C)C)C(=O)N[C@@H](C)C(=O)N[C@@H](Cc1ccccc1)C(=O)O` [3102.0420] (H-RTFLIDLAF-OH), with 0.48 nM; and `CC[C@H](C)[C@H](NC(=O)[C@H](CO)NC(=O)[C@H](CC(C)C)NC(=O)[C@@H](NC(=O)[C@H](Cc1ccccc1)NC(=O)[C@H](CC(N)=O)NC(=O)[C@H](CCC(=O)O)NC(=O)[C@@H](NC(=O)[C@@H](N)CCCNC(=N)N)[C@@H](C)O)C(C)C)C(=O)O` [3102.0421] (H-RTENFVLSI-OH), with 1.6 nM.
For `CC[C@H](C)[C@H](N)C(=O)N[C@H](C(=O)N[C@@H](Cc1ccc(O)cc1)C(=O)N[C@@H](CCC(=O)O)C(=O)N[C@@H](CCCCN)C(=O)N[C@@H](CO)C(=O)N[C@@H](CC(N)=O)C(=O)N[C@@H](CC(N)=O)C(=O)N[C@H](C(=O)O)[C@@H](C)CC)[C@@H](C)O` [3102.0422] (H-ITYEKSNNI-OH), the IC50 was 18 nM.
`CC[C@H](C)[C@H](NC(=O)[C@@H](NC(=O)[C@H](CCCNC(=N)N)NC(=O)[C@@H]1CCCN1C(=O)[C@H](Cc1ccccc1)NC(=O)[C@H](Cc1ccccc1)NC(=O)[C@H](CCSC)NC(=O)[C@@H](NC(=O)[C@H](C)N)[C@@H](C)CC)[C@@H](C)O)C(=O)O` [3102.0423] (H-AIMFFPRTI-OH) gave an IC50 of 1.1 nM.
As for `CC(C)C[C@H](NC(=O)[C@@H](N)C(C)C)C(=O)N[C@@H](Cc1ccc(O)cc1)C(=O)N[C@@H](CC(N)=O)C(=O)N[C@@H](CC(N)=O)C(=O)N[C@H](C(=O)N[C@H](C(=O)N[C@@H](CCC(=O)O)C(=O)N[C@@H](Cc1ccccc1)C(=O)O)C(C)C)C(C)C` [3102.0424] (H-VLYNNVVEF-OH), the figure is 1.5 nM; as for `CC[C@H](C)[C@H](NC(=O)[C@@H](N)CO)C(=O)N[C@@H](Cc1ccc(O)cc1)C(=O)N[C@@H](CCCNC(=N)N)C(=O)N[C@@H](CCSC)C(=O)N[C@@H](CO)C(=O)N[C@@H](Cc1ccc(O)cc1)C(=O)N[C@@H](CCC(N)=O)C(=O)N[C@@H](Cc1ccccc1)C(=O)O` [3102.0425] (H-SIYRMSYQF-OH), 0.8 nM; as for `CSCC[C@H](NC(=O)[C@H](C)NC(=O)[C@@H](N)CC(C)C)C(=O)N[C@@H](CC(N)=O)C(=O)N[C@@H](CO)C(=O)N[C@H](C(=O)N[C@@H](Cc1ccccc1)C(=O)N[C@H](C(=O)N[C@@H](Cc1ccccc1)C(=O)O)[C@@H](C)O)C(C)C` [3102.0426] (H-LAMNSVFTF-OH), 16 nM.
In turn, `CC[C@H](C)[C@H](NC(=O)[C@H](CC(C)C)NC(=O)[C@@H](NC(=O)[C@H](CC(N)=O)NC(=O)[C@H](CC(N)=O)NC(=O)[C@H](CO)NC(=O)[C@H](Cc1ccccc1)NC(=O)[C@H](CCSC)NC(=O)[C@@H](N)CCCCN)C(C)C)C(=O)O` [3102.0427] (H-KMFSNNVLI-OH) had an IC50 of 1.1 nM.
Then `CC[C@H](C)[C@H](NC(=O)[C@H](CC(C)C)NC(=O)[C@@H](N)CCCNC(=N)N)C(=O)N[C@@H](CC(N)=O)C(=O)N[C@@H](CC(N)=O)C(=O)N[C@@H](CCCNC(=N)N)C(=O)N[C@H](C(=O)N[C@@H](CC(C)C)C(=O)N[C@@H](Cc1ccccc1)C(=O)O)C(C)C` [3102.0428] (H-RLINNRVLF-OH), with 5.7 nM.
Turning to `CC[C@H](C)[C@H](NC(=O)[C@H](CCCCN)NC(=O)[C@H](Cc1ccccc1)NC(=O)[C@H](CC(N)=O)NC(=O)[C@H](CC(N)=O)NC(=O)[C@H](Cc1ccccc1)NC(=O)[C@H](CC(C)C)NC(=O)[C@@H](NC(=O)[C@@H](N)CCCNC(=N)N)C(C)C)C(=O)O` [3102.0429] (H-RVLFNNFKI-OH), it took 0.89 nM to reach half-maximal inhibition (IC50).
As for `CC[C@H](C)[C@H](NC(=O)[C@@H](NC(=O)[C@H](CC(N)=O)NC(=O)[C@H](Cc1ccccc1)NC(=O)[C@H](Cc1ccccc1)NC(=O)[C@@H](NC(=O)[C@@H](NC(=O)[C@@H](NC(=O)[C@@H](N)CCCCN)C(C)C)C(C)C)[C@@H](C)CC)[C@@H](C)O)C(=O)O` [3102.0430] (H-KVVIFFNTI-OH), the IC50 was 8.3 nM.
With `CC[C@H](C)[C@H](NC(=O)[C@@H](NC(=O)[C@@H](NC(=O)[C@H](CC(N)=O)NC(=O)[C@H](Cc1ccccc1)NC(=O)[C@H](Cc1ccccc1)NC(=O)[C@@H](NC(=O)[C@@H](NC(=O)[C@@H](N)C(C)C)C(C)C)[C@@H](C)CC)[C@@H](C)O)[C@@H](C)CC)C(=O)O` [3102.0431] (H-VVIFFNTII-OH), half-maximal inhibition (IC50) required 15 nM.
Regarding `CC[C@H](C)[C@H](NC(=O)[C@H](CC(N)=O)NC(=O)[C@H](CC(N)=O)NC(=O)[C@H](CC(C)C)NC(=O)[C@@H](NC(=O)[C@H](CC(N)=O)NC(=O)[C@H](Cc1ccc(O)cc1)NC(=O)[C@H](CC(C)C)NC(=O)[C@@H](N)Cc1c[nH]cn1)[C@@H](C)CC)C(=O)O` [3102.0432] (H-HLYNILNNI-OH), half-maximal inhibition (IC50) required 73 nM.
As for `CC[C@H](C)[C@H](NC(=O)[C@H](CO)NC(=O)[C@@H](NC(=O)[C@H](CCCCN)NC(=O)CNC(=O)[C@H](Cc1ccccc1)NC(=O)[C@H](Cc1ccccc1)NC(=O)[C@@H](NC(=O)[C@@H](N)CCCNC(=N)N)[C@@H](C)CC)[C@@H](C)O)C(=O)O` [3102.0433] (H-RIFFGKTSI-OH), the figure is 1.3 nM.
In turn, `CC[C@H](C)[C@H](NC(=O)[C@@H](NC(=O)[C@@H](NC(=O)[C@H](CCCCN)NC(=O)[C@H](CC(N)=O)NC(=O)[C@H](CC(N)=O)NC(=O)[C@H](C)NC(=O)[C@H](CC(C)C)NC(=O)[C@@H](N)CCCNC(=N)N)C(C)C)[C@@H](C)O)C(=O)O` [3102.0434] (H-RLANNKVTI-OH) had a concentration for half-maximal inhibition (IC50) of 1.5 nM.
As for `CC[C@H](C)[C@H](N)C(=O)N[C@H](C(=O)N[C@H](C(=O)N[C@@H](Cc1ccccc1)C(=O)N[C@@H](Cc1ccccc1)C(=O)N[C@H](C(=O)N[C@H](C(=O)N[C@@H](CC(C)C)C(=O)N[C@H](C(=O)O)[C@@H](C)CC)C(C)C)[C@@H](C)CC)[C@@H](C)CC)[C@@H](C)CC` [3102.0435] (H-IIIFFIVLI-OH), the figure is 14 nM; as for `CC[C@H](C)[C@H](N)C(=O)N[C@H](C(=O)N[C@@H](Cc1ccccc1)C(=O)N[C@@H](Cc1ccccc1)C(=O)N[C@H](C(=O)N[C@H](C(=O)N[C@@H](CC(C)C)C(=O)N[C@H](C(=O)N[C@@H](CC(C)C)C(=O)O)[C@@H](C)CC)C(C)C)[C@@H](C)CC)[C@@H](C)CC` [3102.0436] (H-IIFFIVLIL-OH), 12 nM.
